Measurements reported in PubChem BioAssay (NCI).
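Exposure lasted 48 hours, with cells grown in 96-well plates and compounds tested at five concentrations. TGI denotes the concentration required for complete inhibition of growth.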

system: SF-295 CNS; assay: DTP human tumour cell line panel, 48 h

`O=C(CCc1ccc(O)c(O)c1)NCCc1cc(O)cc(O)c1` and `Cc1nn(C(=O)c2ccc(Cl)cc2)c2c1C(c1ccccc1[N+](=O)[O-])SC(N)=N2` (centres undefined) cannot be ordered by TGI: > 100 µM for the first, > 10 µM for the second.

system: OVCAR-3 ovarian; assay: DTP human tumour cell line panel, 48 h

Point of comparison: `CCN(CC)/C(Sc1ccccc1)=C(\C(Cl)=C(Cl)Cl)[N+](=O)[O-]`, TGI 32.7 µM. Against it:
- CN(C)C(=S)/N=c1\ssc(=S)n1Cc1ccccc1 — 64-fold lower, 0.512 µM
- Cn1c(O)c(C=Nc2ccccc2[N+](=O)[O-])c(=O)n(C)c1=O — higher, > 100 µM
- COc1cc(-c2cc(-c3ccccc3)nc(-c3c(OC)ccc4c(C)cc(=O)oc34)c2)cc(OC)c1OC — higher, > 100 µM
- CCOC(=O)c1nc2ccccc2nc1NCc1cc(OC)c(OC)c(OC)c1 — higher, > 100 µM
- C[C@H](NC(=O)c1ccc(CNC(=O)/C=C/c2cccc(Oc3ccccc3)c2)cc1)c1ccccc1 — higher, > 100 µM
- Brc1cc(CCOC2CCCCO2)c(-c2sccc2CCOC2CCCCO2)s1 (centres undefined) — higher, > 100 µM
- CC(C)=CCC/C(=C/CC/C(=C\CCc1ccoc1)C(=O)O)C(=O)O — higher, > 100 µM
- CCCCc1ccc(Nc2nc(SC)c3[nH]cnc3n2)cc1 — higher, > 93.5 µM
- Cc1cccc(CP(Cc2cccc(C)c2)CC2(Cp3c4ccccc4c4ccccc43)COC2)c1 — higher, > 100 µM
- COc1cc(OC)nc(-n2c(N)c(C#N)c3ccc([N+](=O)[O-])cc3c2=O)n1 — higher, > 100 µM
- COC(=O)c1sc(=S)sc1SCc1ccc(CSc2sc(=S)sc2C(=O)OC)cc1 — higher, > 100 µM
- CCOC(=O)c1cn2c(n1)sc1c(Cl)c(Cl)ccc12 — higher, > 58.1 µM
- CN1CCN(c2ncc3c(n2)sc2c(=O)n(-c4ccccc4)cnc23)CC1 — higher, > 100 µM
- COc1ccc(C(=O)c2sc(Nc3ccc(Cl)cc3)nc2N)cc1 — within 1.5-fold, 35 µM
- Cc1cn(C2CC(O)C(COC(=O)NCCC(F)(F)C(F)(F)C(F)(F)C(F)(F)F)O2)c(=O)[nH]c1=O (centres undefined) — higher, > 100 µM
- CC(C)(C)OC(=O)N1CCC(C(=O)O)CC1 — higher, > 100 µM
- C/C=C\C(CC(=O)NCCC1CN(S(=O)(=O)c2ccc(C)cc2)c2ccccc21)CC(=O)OC (centres undefined) — higher, > 100 µM
- CN(C)CCN(C)c1ccc2c(=O)n(CCN(C)C)c(=O)n3c4ccccc4c(=O)c1c23 — 2.6-fold lower, 12.6 µM
- O=C(CCc1ccc(O)c(O)c1)NCCc1cc(O)cc(O)c1 — higher, > 100 µM
- Cc1nn(C(=O)c2ccc(Cl)cc2)c2c1C(c1ccccc1[N+](=O)[O-])SC(N)=N2 (centres undefined) — not separable, > 10 µM
- C=CCc1cccc2cc(C(=O)Nc3ccccc3)c(=N)oc12 — higher, > 100 µM

system: SK-MEL-5 melanoma; assay: DTP human tumour cell line panel, 48 h

Point of comparison: `CN(C)CCN(C)c1ccc2c(=O)n(CCN(C)C)c(=O)n3c4ccccc4c(=O)c1c23`, TGI 2.71 µM. Against it:
- CN(C)C(=S)/N=c1\ssc(=S)n1Cc1ccccc1 — 6.8-fold higher, 18.3 µM
- Cn1c(O)c(C=Nc2ccccc2[N+](=O)[O-])c(=O)n(C)c1=O — higher, > 100 µM
- COc1cc(-c2cc(-c3ccccc3)nc(-c3c(OC)ccc4c(C)cc(=O)oc34)c2)cc(OC)c1OC — higher, > 100 µM
- CCOC(=O)c1nc2ccccc2nc1NCc1cc(OC)c(OC)c(OC)c1 — higher, > 100 µM
- C[C@H](NC(=O)c1ccc(CNC(=O)/C=C/c2cccc(Oc3ccccc3)c2)cc1)c1ccccc1 — higher, > 100 µM
- CCN(CC)/C(Sc1ccccc1)=C(\C(Cl)=C(Cl)Cl)[N+](=O)[O-] — 11-fold higher, 29 µM
- Brc1cc(CCOC2CCCCO2)c(-c2sccc2CCOC2CCCCO2)s1 (centres undefined) — higher, > 100 µM
- CC(C)=CCC/C(=C/CC/C(=C\CCc1ccoc1)C(=O)O)C(=O)O — higher, > 100 µM
- CCCCc1ccc(Nc2nc(SC)c3[nH]cnc3n2)cc1 — higher, > 100 µM
- Cc1cccc(CP(Cc2cccc(C)c2)CC2(Cp3c4ccccc4c4ccccc43)COC2)c1 — 4.9-fold higher, 13.4 µM
- COc1cc(OC)nc(-n2c(N)c(C#N)c3ccc([N+](=O)[O-])cc3c2=O)n1 — higher, > 100 µM
- COC(=O)c1sc(=S)sc1SCc1ccc(CSc2sc(=S)sc2C(=O)OC)cc1 — higher, > 100 µM
- CCOC(=O)c1cn2c(n1)sc1c(Cl)c(Cl)ccc12 — 24-fold higher, 65.7 µM
- CN1CCN(c2ncc3c(n2)sc2c(=O)n(-c4ccccc4)cnc23)CC1 — higher, > 100 µM
- COc1ccc(C(=O)c2sc(Nc3ccc(Cl)cc3)nc2N)cc1 — higher, > 100 µM
- Cc1cn(C2CC(O)C(COC(=O)NCCC(F)(F)C(F)(F)C(F)(F)C(F)(F)F)O2)c(=O)[nH]c1=O (centres undefined) — higher, > 100 µM
- CC(C)(C)OC(=O)N1CCC(C(=O)O)CC1 — higher, > 100 µM
- C/C=C\C(CC(=O)NCCC1CN(S(=O)(=O)c2ccc(C)cc2)c2ccccc21)CC(=O)OC (centres undefined) — higher, > 100 µM
- O=C(CCc1ccc(O)c(O)c1)NCCc1cc(O)cc(O)c1 — higher, > 100 µM
